Data reported in US20220119354A1, “DIAMINO-SUBSTITUTED PYRIDINES AND PYRIMIDINES AS HERBICIDES” (FMC Corporation, priority 2019, published 2022).

Tests used:
Assay type in all cases: in vivo
[1] = tested on: galium (catchweed bedstraw, Galium aparine); experiment: Test A postemergence, galium; settings: 0 to 100 scale, 0 no effect, 100 complete control
In short: (§1)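 Steps: plant seeds in loam/sand; spray soil (pre) or seedlings at 1–2 leaves, 2–10 cm (post) with compound in solvent plus surfactant; keep in greenhouse ~10 d; score injury visually against untreated controls, 0–100.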

[2] = tested on: ducksalad (Heteranthera limosa); experiment: Test B flooded paddy test, ducksalad; settings: Flood, 250 g ai/ha, applied to paddy water, 2-leaf stage, visual evaluation after 13 to 15 d
In short: (§2)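 Each response is a visual 0–100 rating made against untreated controls, where 0 is no effect and 100 is complete control; a dash marks no result. Compound was dosed into 3 cm paddy water over 2-leaf plants, assessed after 13 to 15 d.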

[3] = tested on: barnyardgrass (Echinochloa crus-galli); experiment: Test A preemergence, barnyardgrass; settings: 0 to 100 scale, 0 is no effect, 100 is complete control
In short: as §1

[4] = tested on: foxtail, giant (Setaria faberii); experiment: Test A preemergence, giant foxtail; settings: 0 to 100 scale, 0 is no effect, 100 is complete control
In short: as §1

[5] = tested on: foxtail, giant (Setaria faberii); experiment: Test A postemergence, giant foxtail; settings: 0 to 100 scale, 0 no effect, 100 complete control
In short: as §1

[6] = tested on: barnyardgrass (Echinochloa crus-galli); experiment: Test B flooded paddy test, barnyardgrass; settings: Flood, 250 g ai/ha, applied to paddy water, 2-leaf stage, visual evaluation after 13 to 15 d
In short: as §2

[7] = tested on: sedge, umbrella (small-flower umbrella sedge, Cyperus difformis); experiment: Test B flooded paddy test, umbrella sedge; settings: Flood, 250 g ai/ha, applied to paddy water, 2-leaf stage, visual evaluation after 13 to 15 d
In short: as §2

[8] = tested on: corn (Zea mays); experiment: Test A postemergence, corn; settings: 0 to 100 scale, 0 no effect, 100 complete control
In short: as §1

[9] = tested on: kochia (Kochia scoparia); experiment: Test A preemergence, kochia; settings: 0 to 100 scale, 0 is no effect, 100 is complete control
In short: as §1

[10] = tested on: kochia (Kochia scoparia); experiment: Test A postemergence, kochia; settings: 0 to 100 scale, 0 no effect, 100 complete control
In short: as §1

[11] = tested on: ragweed (common ragweed, Ambrosia elatior); experiment: Test A postemergence, ragweed; settings: 0 to 100 scale, 0 no effect, 100 complete control
In short: as §1

[12] = tested on: wheat (Triticum aestivum); experiment: Test A postemergence, wheat; settings: 0 to 100 scale, 0 no effect, 100 complete control
In short: as §1

[13] = tested on: ragweed (common ragweed, Ambrosia elatior); experiment: Test A preemergence, ragweed; settings: 0 to 100 scale, 0 is no effect, 100 is complete control
In short: as §1

[14] = tested on: pigweed (Amaranthus retroflexus); experiment: Test A postemergence, pigweed; settings: 0 to 100 scale, 0 no effect, 100 complete control
In short: as §1

[15] = tested on: blackgrass (Alopecurus myosuroides); experiment: Test A postemergence, blackgrass; settings: 0 to 100 scale, 0 no effect, 100 complete control
In short: as §1

[16] = tested on: ryegrass, Italian (Lolium multiflorum); experiment: Test A postemergence, Italian ryegrass; settings: 0 to 100 scale, 0 no effect, 100 complete control
In short: as §1

[17] = tested on: pigweed (Amaranthus retroflexus); experiment: Test A preemergence, pigweed; settings: 0 to 100 scale, 0 is no effect, 100 is complete control
In short: as §1

[18] = tested on: rice (Oryza sativa); experiment: Test B flooded paddy test, rice; settings: Flood, 250 g ai/ha, applied to paddy water, 2-leaf stage, visual evaluation after 13 to 15 d
In short: as §2

[19] = tested on: ryegrass, Italian (Lolium multiflorum); experiment: Test A preemergence, Italian ryegrass; settings: 0 to 100 scale, 0 is no effect, 100 is complete control
In short: as §1

[20] = tested on: barnyardgrass (Echinochloa crus-galli); experiment: Test A postemergence, barnyardgrass; settings: 0 to 100 scale, 0 no effect, 100 complete control
In short: as §1

SMILES | Plant response rating, Galium ([1]; 125 g ai/ha) | Plant response rating, Galium ([1]; 500 g ai/ha) | Plant response rating, Ducksalad (0 to 100 scale, 0 is no effect, 100 is complete control) [2] | Barnyardgrass plant response rating ([3]; 125 g ai/ha) | Barnyardgrass plant response rating ([3]; 500 g ai/ha) | Foxtail, Giant plant response rating ([4]; 125 g ai/ha) | Foxtail, Giant plant response rating ([4]; 500 g ai/ha) | Plant response rating, Foxtail, Giant ([5]; 125 g ai/ha) | Plant response rating, Foxtail, Giant ([5]; 500 g ai/ha) | Plant response rating, Barnyardgrass (0 to 100 scale, 0 is no effect, 100 is complete control) [6] | Plant response rating, Sedge, Umbrella (0 to 100 scale, 0 is no effect, 100 is complete control) [7] | Plant response rating, Corn ([8]; 125 g ai/ha) | Plant response rating, Corn ([8]; 500 g ai/ha) | Kochia plant response rating ([9]; 125 g ai/ha) | Kochia plant response rating ([9]; 500 g ai/ha) | Plant response rating, Kochia ([10]; 125 g ai/ha) | Plant response rating, Kochia ([10]; 500 g ai/ha) | Plant response rating, Ragweed ([11]; 125 g ai/ha) | Plant response rating, Ragweed ([11]; 500 g ai/ha) | Plant response rating, Wheat ([12]; 125 g ai/ha) | other results
C[C@H](Nc1nc(N)c(C(F)(F)F)c(C(F)(F)F)n1)C1Cc2ccccc2C1 [Compound 68] | 0 | 0 | 0 | 0 | 0 | 0 | 0 | 0 | 0 | 0 | 0 | 20 | 0 | 0 | 0 | 20 | 40 | 40 | 50 | 0 | Plant response rating, Wheat ([12]; 500 g ai/ha): 0; Ragweed plant response rating ([13]; 125 g ai/ha): 0; Ragweed plant response rating ([13]; 500 g ai/ha): 0; Plant response rating, Pigweed ([14]; 125 g ai/ha): 0; Plant response rating, Pigweed ([14]; 500 g ai/ha): 0; Plant response rating, Blackgrass ([15]; 125 g ai/ha): 0; Plant response rating, Blackgrass ([15]; 500 g ai/ha): 0; Plant response rating, Ryegrass, Italian ([16]; 125 g ai/ha): 0; Plant response rating, Ryegrass, Italian ([16]; 500 g ai/ha): 0; Pigweed plant response rating ([17]; 125 g ai/ha): 0; Pigweed plant response rating ([17]; 500 g ai/ha): 0; Plant response rating, Rice (0 to 100 scale, 0 is no effect, 100 is complete control) [18]: 0; Ryegrass, Italian plant response rating ([19]; 125 g ai/ha): 0; Ryegrass, Italian plant response rating ([19]; 500 g ai/ha): 0; Plant response rating, Barnyardgrass ([20]; 125 g ai/ha): 0; Plant response rating, Barnyardgrass ([20]; 500 g ai/ha): 0
C[C@H](Nc1ncc(C(F)(F)F)c(N)n1)c1cc2cccc(F)c2o1 [Compound 72] | 0 | 40 | 0 | 0 | 0 | 0 | 0 | 0 | 0 | 0 | 0 | 0 | 0 | 0 | 0 | 0 | 30 | 0 | 30 | 0 | Plant response rating, Wheat ([12]; 500 g ai/ha): 0; Ragweed plant response rating ([13]; 125 g ai/ha): 0; Ragweed plant response rating ([13]; 500 g ai/ha): 0; Plant response rating, Pigweed ([14]; 125 g ai/ha): 40; Plant response rating, Pigweed ([14]; 500 g ai/ha): 50; Plant response rating, Blackgrass ([15]; 125 g ai/ha): 0; Plant response rating, Blackgrass ([15]; 500 g ai/ha): 0; Plant response rating, Ryegrass, Italian ([16]; 125 g ai/ha): 0; Plant response rating, Ryegrass, Italian ([16]; 500 g ai/ha): 0; Pigweed plant response rating ([17]; 125 g ai/ha): 0; Pigweed plant response rating ([17]; 500 g ai/ha): 80; Plant response rating, Rice (0 to 100 scale, 0 is no effect, 100 is complete control) [18]: 0; Ryegrass, Italian plant response rating ([19]; 125 g ai/ha): 0; Ryegrass, Italian plant response rating ([19]; 500 g ai/ha): 0; Plant response rating, Barnyardgrass ([20]; 125 g ai/ha): 0; Plant response rating, Barnyardgrass ([20]; 500 g ai/ha): 0
